# Values of other authors as cited in patent publication US5204361A, “Method for treating laminitis in equine livestock” (priority 1988, dated 1993).
# Columns and labels:
# horses = settings: cited from earlier work
# cattle = settings: Nagaraja et al. (1981); cited from earlier work
smiles,measurement,setting,value
CC[C@@]1([C@@H]2O[C@@H]([C@H]3O[C@@](O)(CO)[C@H](C)C[C@@H]3C)C[C@@H]2C)CC[C@H]([C@]2(C)CC[C@]3(C[C@H](O)[C@@H](C)[C@@H]([C@@H](C)[C@@H](OC)[C@H](C)C(=O)O)O3)O2)O1 [monensin],toxicity on the host,horses,highly toxic
same,control of lactic acidosis,cattle,lactic acidosis could be controlled
